Experimental data reported in PubChem BioAssay (NCI).
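Protocol summary: plate cells (96-well), add compound at 5 concentrations, incubate 48 h, interpolate endpoints linearly. GI50 is the concentration that inhibits growth by half. At the TGI there is no net growth.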

How the values were obtained:
Experiment in all cases: NCI-60 cell line screen, 48 h
HOP-62 NSCLC = system: HOP-62 NSCLC
HCT-116 colon = system: HCT-116 colon
UACC-62 melanoma = system: UACC-62 melanoma
A549 NSCLC = system: A549 NSCLC
SNB-75 CNS = system: SNB-75 CNS
TK-10 renal = system: TK-10 renal
HS 578T breast = system: HS 578T breast
DU-145 prostate = system: DU-145 prostate
EKVX NSCLC = system: EKVX NSCLC
T-47D breast = system: T-47D breast

SMILES | TGI (HOP-62 NSCLC) [µM] | TGI (HCT-116 colon) [µM] | TGI (UACC-62 melanoma) [µM] | TGI (A549 NSCLC) [µM] | TGI (SNB-75 CNS) [µM] | TGI (TK-10 renal) [µM] | GI50 (HOP-62 NSCLC) [µM] | GI50 (HCT-116 colon) [µM] | GI50 (UACC-62 melanoma) [µM] | GI50 (HS 578T breast) [µM] | TGI (HS 578T breast) [µM] | GI50 (A549 NSCLC) [µM] | GI50 (SNB-75 CNS) [µM] | GI50 (DU-145 prostate) [µM] | TGI (DU-145 prostate) [µM] | GI50 (EKVX NSCLC) [µM] | TGI (EKVX NSCLC) [µM] | GI50 (T-47D breast) [µM] | TGI (T-47D breast) [µM] | GI50 (TK-10 renal) [µM]
CC(C)(O)[C@@H]1CC[C@@]2(C)CCCC(O)C2(O)C1 (stereo partly specified) | > 100 | > 100 | > 100 | > 100 | > 100 | > 100 | – | – | – | – | – | – | – | – | – | – | – | – | – | –
Fc1cc2[nH]ncc2c2c3c(c(-c4cn[nH]c4C(F)(F)F)nc12)CCCC3 | 6.19 | > 100 | 3 | > 100 | 2.95 | – | 1.65 | 0.923 | 1.31 | 1.66 | 5.26 | 2.06 | 1.5 | 1.72 | > 100 | 1.84 | 5.3 | 1.97 | 7.39 | –
COC(=O)C(Cc1cc(OC)c(OC)c(OC)c1)C(=O)OC | > 320 | – | > 320 | > 320 | – | > 320 | – | – | – | – | – | – | – | – | – | – | > 320 | – | – | –
CCSCC1CC(O)(c2ccccc2)CC(c2ccc(F)cc2)O1 (stereo unspecified) | 3.29 | 3.02 | 3.2 | 11 | 5.74 | 6.13 | 1.75 | 1.66 | 1.42 | 1.89 | 4.36 | 2.74 | 1.88 | 2.66 | 7.17 | 2.13 | 6.04 | 2.23 | 8.24 | 2.16
COc1ccc(C2=N[C@@H](Cc3ccccc3)C(=O)Nc3ccsc32)cc1 | 19.1 | 17.7 | 20.2 | 29.5 | 7.08 | 56.6 | 5.81 | 5.38 | 4.47 | 3.24 | 28.8 | 4.69 | 2.05 | 4.65 | 21.9 | – | – | 5.64 | 48.4 | 13
COc1ccc(NC(=O)C(=O)c2c(O)c3ccc(O)cc3oc2=O)c([N+](=O)[O-])c1 | – | > 100 | > 100 | > 100 | > 100 | > 100 | – | – | – | – | – | – | – | – | – | – | > 100 | – | – | –
CC(C)(C)c1ccc(S(=O)(=O)Oc2ccc3c4c(c(=O)oc3c2)CCCCC4)cc1 | 46.2 | > 100 | 33.6 | 39.8 | 36.8 | 36.4 | 21.5 | 7.06 | 3.19 | 15.2 | 74.3 | 14.2 | 13.3 | 37.9 | > 100 | – | – | 5.17 | > 100 | 18.1
CS(=O)(=O)Nc1cncc(-c2ccc3ncnc(Nc4ccc(F)c(Cl)c4)c3c2)c1 | 20.2 | 5.77 | 11.8 | 17.4 | 6.92 | – | 2.51 | 1.97 | 2.22 | 1.07 | 4.38 | 3.75 | 0.434 | 2.25 | 15.2 | 0.888 | 7.01 | 0.189 | 2.5 | –
N#CCCN(c1ccc(C=Nc2ccccc2)cc1)S(=O)(=O)c1ccccc1 | > 100 | > 100 | > 100 | > 100 | > 100 | > 100 | – | – | – | – | – | – | – | – | – | – | > 100 | – | – | –
Cc1cc(S(=O)(=O)Nc2nc3ccccc3o2)c(SCc2ccccc2)cc1Cl | > 100 | 33.4 | 79.5 | 45.3 | 90.8 | 90.7 | 28.5 | 13.8 | 28.7 | 29.5 | 78.9 | 21.7 | 38.6 | 26.5 | 77.9 | 21.9 | 55.8 | – | – | 28.6
O=C(CC(Cl)=C(Cl)Cl)Nc1ccccc1 | > 100 | > 100 | > 100 | > 100 | – | > 100 | > 100 | > 100 | > 100 | > 100 | > 100 | > 100 | – | > 100 | > 100 | > 100 | > 100 | > 100 | > 100 | > 100
O=C(N/C(=C\c1ccc(Cl)cc1)c1nc2ccccc2[nH]1)c1ccccc1 | – | 29.1 | 32.3 | 56.1 | 47.2 | 63.8 | – | – | – | – | – | – | – | – | – | – | 58.1 | – | – | –
CC(C)(Br)C(=O)N1CCN(C(c2ccccc2)c2ccccc2)CC1 | > 100 | > 100 | > 100 | > 100 | > 100 | > 100 | – | – | – | – | 55.5 | – | – | – | > 100 | – | > 100 | – | – | –
Cc1c(Cl)cccc1NC(=O)C(=O)C(C(=O)c1ccccc1-c1ccccc1)C1OC(=O)c2ccccc21 (stereo unspecified) | 35.5 | 25 | 37.3 | 66.8 | 42.1 | 57.6 | – | – | – | – | – | – | – | – | – | – | 59 | – | – | –
COC(=O)C(C(=O)C(=O)Nc1c(C)cccc1C)c1cnc2ccccc2n1 (stereo unspecified) | – | > 100 | > 100 | > 100 | > 100 | > 100 | – | – | – | – | – | – | – | – | – | – | > 100 | – | – | –
N.N.N.N.N.[Co+3].[I-].[N-]=[N+]=[N-] | > 100 | > 100 | > 100 | > 100 | > 100 | > 100 | > 100 | > 100 | 89.7 | – | – | > 100 | 76.9 | – | – | > 100 | > 100 | – | – | > 100
COc1ccc(C2=C(Cl)c3cc(OC)c(OC)cc3C2OC)cc1OC (stereo unspecified) | > 100 | > 100 | > 100 | > 100 | > 100 | > 100 | – | – | – | – | – | – | – | – | – | – | > 100 | – | – | –
